Several values for one entry are separate records, joined by “and”; a condition that tells them apart may be missing. Equal entries are not always repeated.
Experiments:
22rv1 tumor = test: Tissue distribution in PSMA-positive 22rv1 tumor-bearing mice; assay type: in vivo; details: tail vein, FIG. 8
Protocol: Tissue distribution in PSMA-positive tumor-bearing mice: About 6-9 weeks old (Nod scid) mice (Jiangsu Huajing Molecular Imaging and Drug Research Institute Co., Ltd.) were inoculated subcutaneously with 5×10^6 cells of 22rv1 (in 50% Matrigel, Corning) on the right shoulder of animals. When the tumor grew to a size of about 150-350 mm^3, ^177Lu-E3 radiolabeled compound was injected into the tail vein of the mouse (about 7.4 MBq/mouse, specific activity: 22423.82 KBq/μg). The animals were euthanized by carbon dioxide inhalation at 0.25, 0.5, 1, 6, 24, 72, 144, and 168 hours respectively after administration. Blood and viscera (blood, liver, spleen, lung, heart, muscle, pancreas, testis, tumor) were collected from animals after euthanasia.
Blood was collected through the abdominal aorta, and immediately after collection, 100 μL was quantified into a designated centrifuge tube (weighed). After the viscera were collected, they were washed twice with deionized water and wiped dry. The viscera were put into a pre-weighed test tube, and weighed again. The weight of the sample was calculated. The sample was measured on the day of collection. All blood samples and tissue samples were measured for radioactive counts using a gamma counter, and the results are shown in FIG. 8.

[1] = tested on: LNCaP PSMA-positive tumors; test: SPECT imaging in mice carrying LNCaP PSMA-positive tumors; assay type: in vivo; details: 100 μCi tail vein
Protocol: 100 μCi of ^177Lu-labeled ^177Lu-E3 and ^177Lu-PSMA-617 were injected into mice carrying LNCaP PSMA-positive tumors (Jiangsu Huajing Molecular Imaging and Drug Research Institute Co., Ltd.) through the tail vein respectively. Mice were anesthetized with 2% isoflurane/98% oxygen for SPECT image contrast study.

[2] = tested on: PSMA-positive cells LNCap; test: Uptake of labeled compounds by PSMA-positive cells LNCap; assay type: cell-based; details: 37° C., 0.5 h
Protocol: LNCap cells (Shangcheng Beina Chuanglian Biotechnology Co., Ltd., Industrial Park, Chengguan Town, Shangcheng County, Xinyang City, Henan Province) were revived and passaged for expansion. After the cells were expanded to a sufficient amount, cells were seeded in a 24-well plate at a density of 1×10^4 cells/well. Uptake tests were performed when cells grew to 80%-90% confluence.
The above labeled compounds ^177Lu-E1, ^177Lu-E2, ^177Lu-E3, ^177Lu-E5, ^177Lu-E9, ^177Lu-E14 and ^177Lu-PSMA-617 were diluted with serum-free medium into 10000, 1000, 100, 10, 1, 0.1 and 0 nM. 1 mL of the diluted solution was added to a 24-well plate, and incubated at 37° C. for 0.5 h. The supernatant was discarded and the cells were washed 3 times with PBS. 250 μL of 1M NaOH solution was added to each well. The cells were pipetted until they were completely dissolved, and transferred to a scintillation vial. 250 μL of NaOH solution was added to each well again to wash the bottom of the well and transferred to a scintillation vial. 2 mL of scintillation fluid was added to each scintillation vial and shaken well. A liquid scintillation counter was used to detect radioactive counts in each vial.

[3] = In vivo metabolism test of 177Lu-labeled complex in SD rats (plasma radioactive counts); details: for plasma radioactive counts: individual rat, 100 μL plasma; for plasma radioactive counts, MEAN: mean of rats
Protocol: Eighteen SD rats (Hangzhou Ziyuan Experimental Animal Technology Co., Ltd.), male, weighing 180-200 g, were randomly divided into 6 groups, 3 rats in each group. […] of the labeled precursor compound was injected into the tail vein of each mouse. 250 μL of orbital blood was collected into anticoagulant tubes at 5 min, 0.5 h, 1 h, 2 h, 4 h, 8 h and 24 h after administration. Blood was centrifuged at 3000 rpm for 10 min, and 100 μL of plasma was taken into scintillation vials. 2 mL of scintillation fluid was added to each scintillation vial and shaken well. A liquid scintillation counter was used to detect radioactive counts in each vial.

22rv1 xenograft tumor = test: Pharmacodynamic study in 22rv1 mouse xenograft tumor model (effect example 11); assay type: in vivo, mice; details: over the two dose groups
[4] = tested on: 22rv1 PSMA-expressing tumors; test: SPECT imaging in 22rv1 tumor-bearing balb/c nude mice (effect example 10); assay type: in vivo; details: about 7.4 MBq/mouse tail vein
Protocol: About 4-5 weeks old (balb/c nude, Beijing Vital River) mice were subcutaneously inoculated with 5×10^6 cells of 22rv1 (in 50% Matrigel, Corning) on the right scapula of animals. When the tumor grew to a size of about 150-350 mm^3, after anesthesia with isoflurane, ^177Lu-PSMA-617, ^177Lu-E3, ^177Lu-E4, ^177Lu-E8, ^177Lu-E16, ^177Lu-E18, ^177Lu-E24 radiolabeled compounds were injected into the tail vein of mice (about 7.4 MBq/mouse, specific activity: 22423.82 KBq/μg). Subsequently, SPECT imaging was performed with a small animal SPECT-CT imaging system (U-SPECT+/CT, MI Labs) at 1 h, 5 h, 24 h, 48 h and 72 h, respectively. ^177Lu-PSMA-617 is shown in FIG. 9, ^177Lu-E3 is shown in FIG. 10, ^177Lu-E4 is shown in FIG. 11, ^177Lu-E8 is shown in FIG. 12, ^177Lu-E16 is shown in FIG. 13, ^177Lu-[…] is shown in FIG. 14, and ^177Lu-E24 is shown in FIG. 15. […] The main way of drug elimination is through the kidney.

[5] = 5 min after tail vein injection
[6] = 0.5 h after tail vein injection

O=C([O-])CN1CCN(CC(=O)[O-])CCN(CC(=O)N2CCc3cc(C(=O)NC(Cc4ccc5ccccc5c4)C(=O)NCCCCC(NC(=O)NC(CCC(=O)O)C(=O)O)C(=O)O)ccc3C2)CCN(CC(=O)[O-])CC1.[177Lu+3] (centres unmarked) [^177Lu-E3]
drug concentration in the tumor after 7 days (22rv1 tumor): high drug concentration
time of highest uptake in the tumor after administration (22rv1 tumor): 2 h
uptake in non-target organs (22rv1 tumor): always low
accumulation in PSMA-positive tumors compared with reference animals injected with ^177Lu-PSMA-617 [1]: significantly higher
route of excretion [1]: mainly excreted through the kidney
Heart, Averaged ([1]; 1 h): 6.44 % ID/cc
Kidney, Averaged ([1]; 1 h): 165.36 % ID/cc
Liver, Averaged ([1]; 1 h): 3.08 % ID/cc
Lung, Averaged ([1]; 1 h): 5.52 % ID/cc
Tumor, Averaged ([1]; 1 h): 23.56 % ID/cc
Heart, Averaged ([1]; 4 h): 2.41 % ID/cc
Kidney, Averaged ([1]; 4 h): 129.55 % ID/cc
Liver, Averaged ([1]; 4 h): 2.03 % ID/cc
Lung, Averaged ([1]; 4 h): 3.26 % ID/cc
Tumor, Averaged ([1]; 4 h): 28.79 % ID/cc
Heart, Averaged ([1]; 8 h): 1.39 % ID/cc
Kidney, Averaged ([1]; 8 h): 87.74 % ID/cc
Liver, Averaged ([1]; 8 h): 2.54 % ID/cc
Lung, Averaged ([1]; 8 h): 1.82 % ID/cc
Tumor, Averaged ([1]; 8 h): 31.79 % ID/cc
Heart, Averaged ([1]; 1 d): 3.23 % ID/cc
Kidney, Averaged ([1]; 1 d): 8.03 % ID/cc
Liver, Averaged ([1]; 1 d): 1.94 % ID/cc
Lung, Averaged ([1]; 1 d): 2.71 % ID/cc
Tumor, Averaged ([1]; 1 d): 34.01 % ID/cc
Heart, Averaged ([1]; 3 d): 2.03 % ID/cc
Kidney, Averaged ([1]; 3 d): 3.74 % ID/cc
Liver, Averaged ([1]; 3 d): 1.80 % ID/cc
Lung, Averaged ([1]; 3 d): 2.68 % ID/cc
Tumor, Averaged ([1]; 3 d): 32.84 % ID/cc
uptake by LNCap cells ([2]; 0.1 nM): 48 cpm
uptake by LNCap cells ([2]; 1 nM): 95 cpm
uptake by LNCap cells ([2]; 10 nM): 346 cpm
uptake by LNCap cells ([2]; 100 nM): 555 cpm
uptake by LNCap cells ([2]; 1000 nM): 903 cpm
uptake by LNCap cells ([2]; 10000 nM): 3150 cpm
plasma radioactive counts [3, 5]: 26791 cpm and 31372 cpm and 27797 cpm
plasma radioactive counts [3, 6]: 10681 cpm and 8675 cpm and 8026 cpm
plasma radioactive counts ([3]; 1 h after tail vein injection): 3448 cpm and 3676 cpm and 2916 cpm
plasma radioactive counts ([3]; 2 h after tail vein injection): 539 cpm and 559 cpm and 458 cpm
plasma radioactive counts ([3]; 4 h after tail vein injection): 178 cpm and 135 cpm and 181 cpm
plasma radioactive counts ([3]; 8 h after tail vein injection): 154 cpm and 191 cpm and 184 cpm
plasma radioactive counts ([3]; 24 h after tail vein injection): 191 cpm and 175 cpm and 179 cpm
plasma radioactive counts, MEAN [3, 5]: 28653 cpm
plasma radioactive counts, MEAN [3, 6]: 9127 cpm
plasma radioactive counts, MEAN ([3]; 1 h after tail vein injection): 3347 cpm
plasma radioactive counts, MEAN ([3]; 2 h after tail vein injection): 519 cpm
plasma radioactive counts, MEAN ([3]; 4 h after tail vein injection): 165 cpm
plasma radioactive counts, MEAN ([3]; 8 h after tail vein injection): 176 cpm
plasma radioactive counts, MEAN ([3]; 24 h after tail vein injection): 182 cpm
tumor growth inhibition rate (22rv1 xenograft tumor): 71-80%
specific absorption in PSMA-expressing tumors after 72 hours [4]: high specific absorption
uptake of radioactivity in PSMA-expressing tumors compared with ^177Lu-PSMA-617 [4]: higher uptake of radioactivity

— patent US20240366813A1, “PEPTIDE-UREA DERIVATIVE, PHARMACEUTICAL COMPOSITION CONTAINING SAME AND APPLICATION THEREOF” (Bivision Pharmaceuticals, Inc., priority 0001, published 2024)
